Assay results: the supplement of paper PMC13207355

Tests used:
Conditions in all cases: exposure time: 72 h
E13 [1] = patient-derived glioblastoma stem cells of classical subtype; test: surviving fraction (nuclei count normalised to DMSO); higher = more cells surviving (less toxic)
E21 [2] = patient-derived glioblastoma stem cells of mesenchymal subtype; test: as above
E28 [3] = patient-derived glioblastoma stem cells of classical subtype; test: as above
E31 [4] = patient-derived glioblastoma stem cells of proneural subtype; test: as above
E34 [5] = patient-derived glioblastoma stem cells of proneural subtype; test: as above
E57 [6] = patient-derived glioblastoma stem cells of mesenchymal subtype; test: as above
FT3469 [7] = normal neural stem cell line; test: as above
E13 [8] = test: phenotypic distance (Euclidean, principal components) from DMSO controls (arbitrary units); higher = stronger morphological change
E21 [9] = test: as above
E28 [10] = test: as above
E31 [11] = test: as above
E34 [12] = test: as above
E57 [13] = test: as above
FT3469 [14] = test: as above
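Throughout, for phenotypic distance (Euclidean, principal components) from DMSO controls: cell Painting imaging in 384-well plates, CellProfiler features reduced to at least 20 principal components, Euclidean distance versus same-plate DMSO vehicle wells (0.1% v/v), median over six images per well.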
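Throughout, for surviving fraction (nuclei count normalised to DMSO): nuclei counted by high-content imaging of Hoechst-stained cells in laminin-coated 384-well plates, relative to 0.1% DMSO vehicle wells, with staurosporine as cell-death control.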

CC(C)N1CCN(c2ccc(OCC3COC(Cn4cncn4)(c4ccc(Cl)cc4Cl)O3)cc2)CC1 (stereo not drawn) [Terconazole]
Conditions | phenotypic distance | surviving fraction
E13 [1], 4.1 nM | – | 0.892
E13 [1], 12.3 nM | – | 0.918
E13 [1], 37 nM | – | 0.999
E13 [1], 111.1 nM | – | 0.856
E13 [1], 333.3 nM | – | 0.988
E13 [1], 1000 nM | – | 1.02
E13 [1], 3000 nM | – | 0.958
E13 [8], 4.1 nM | 0.687 | –
E13 [8], 12.3 nM | 5.3 | –
E13 [8], 37 nM | 0.523 | –
E13 [8], 111.1 nM | 0.619 | –
E13 [8], 333.3 nM | 0.667 | –
E13 [8], 1000 nM | 0.49 | –
E13 [8], 3000 nM | 0.901 | –
E21 [2], 4.1 nM | – | 0.938
E21 [2], 12.3 nM | – | 0.927
E21 [2], 37 nM | – | 0.891
E21 [2], 111.1 nM | – | 0.99
E21 [2], 333.3 nM | – | 0.933
E21 [2], 1000 nM | – | 1.03
E21 [2], 3000 nM | – | 0.813
E21 [9], 4.1 nM | 0.486 | –
E21 [9], 12.3 nM | 0.855 | –
E21 [9], 37 nM | 0.706 | –
E21 [9], 111.1 nM | 0.737 | –
E21 [9], 333.3 nM | 0.686 | –
E21 [9], 1000 nM | 0.994 | –
E21 [9], 3000 nM | 1.83 | –
E28 [3], 4.1 nM | – | 1.15
E28 [3], 12.3 nM | – | 1.04
E28 [3], 37 nM | – | 0.91
E28 [3], 111.1 nM | – | 0.941
E28 [3], 333.3 nM | – | 1.09
E28 [3], 1000 nM | – | 1.02
E28 [3], 3000 nM | – | 0.951
E28 [10], 4.1 nM | 0.79 | –
E28 [10], 12.3 nM | 0.643 | –
E28 [10], 37 nM | 0.472 | –
E28 [10], 111.1 nM | 0.647 | –
E28 [10], 333.3 nM | 0.465 | –
E28 [10], 1000 nM | 0.53 | –
E28 [10], 3000 nM | 2.3 | –
E31 [4], 4.1 nM | – | 1.04
E31 [4], 12.3 nM | – | 0.925
E31 [4], 37 nM | – | 0.922
E31 [4], 111.1 nM | – | 1.01
E31 [4], 333.3 nM | – | 0.96
E31 [4], 1000 nM | – | 0.889
E31 [4], 3000 nM | – | 0.873
E31 [11], 4.1 nM | 0.557 | –
E31 [11], 12.3 nM | 1.01 | –
E31 [11], 37 nM | 0.47 | –
E31 [11], 111.1 nM | 0.863 | –
E31 [11], 333.3 nM | 0.868 | –
E31 [11], 1000 nM | 0.76 | –
E31 [11], 3000 nM | 2.39 | –
E34 [5], 4.1 nM | – | 0.941
E34 [5], 12.3 nM | – | 0.827
E34 [5], 37 nM | – | 0.91
E34 [5], 111.1 nM | – | 1.04
E34 [5], 333.3 nM | – | 1.01
E34 [5], 1000 nM | – | 1.1
E34 [5], 3000 nM | – | 0.994
E34 [12], 4.1 nM | 0.517 | –
E34 [12], 12.3 nM | 1.12 | –
E34 [12], 37 nM | 0.485 | –
E34 [12], 111.1 nM | 0.473 | –
E34 [12], 333.3 nM | 0.562 | –
E34 [12], 1000 nM | 0.745 | –
E34 [12], 3000 nM | 0.672 | –
E57 [6], 4.1 nM | – | 0.985
E57 [6], 12.3 nM | – | 0.938
E57 [6], 37 nM | – | 0.963
E57 [6], 111.1 nM | – | 1
E57 [6], 333.3 nM | – | 0.978
E57 [6], 1000 nM | – | 1
E57 [6], 3000 nM | – | 0.948
E57 [13], 4.1 nM | 0.465 | –
E57 [13], 12.3 nM | 0.601 | –
E57 [13], 37 nM | 0.61 | –
E57 [13], 111.1 nM | 0.332 | –
E57 [13], 333.3 nM | 0.688 | –
E57 [13], 1000 nM | 0.505 | –
E57 [13], 3000 nM | 1.09 | –
FT3469 [7], 4.1 nM | – | 0.997
FT3469 [7], 12.3 nM | – | 0.89
FT3469 [7], 37 nM | – | 0.908
FT3469 [7], 111.1 nM | – | 0.85
FT3469 [7], 333.3 nM | – | 0.987
FT3469 [7], 1000 nM | – | 0.952
FT3469 [7], 3000 nM | – | 0.964
FT3469 [14], 4.1 nM | 0.835 | –
FT3469 [14], 12.3 nM | 0.931 | –
FT3469 [14], 37 nM | 1.01 | –
FT3469 [14], 111.1 nM | 0.79 | –
FT3469 [14], 333.3 nM | 0.822 | –
FT3469 [14], 1000 nM | 0.77 | –
FT3469 [14], 3000 nM | 1.17 | –
